Blank lines part the entries; values can stand above or below the molecule they belong to. Bridge positions count the residues as written; N and C are the ends. Peptide text beside a SMILES is read from it.
Columns and labels:
[1] = target: T1, integrin αvβ6 (Homo sapiens, UniProt P06756+P18564); experiment: AlphaLISA competition assay vs LAP, biotinylated αvβ6; format: binding
[2] = target: T2, integrin αvβ8 (Homo sapiens, UniProt P06756+P26012); experiment: AlphaLISA competition assay vs LAP, biotinylated αvβ8; format: binding
[3] = target: T1, integrin αvβ6; experiment: ELISA competition assay, integrin αvβ6 binding to LAP
[4] = target: T2, integrin αvβ8; experiment: ELISA competition assay, integrin αvβ8 binding to LAP
[5] = αvβ6 IC50, ELISA competition vs LAP, mean, n ≥ 3

Compound: CC(C)C[C@H](NC(=O)[C@H](CC(=O)O)NC(=O)CNC(=O)[C@H](CCCNC(=N)N)NC(=O)[C@@H](NC(=O)[C@H](Cc1ccccc1)NC(=O)[C@H](Cc1ccc(O)cc1)NC(=O)[C@@H]1CCC(=O)NCC(=O)NCC(=O)N[C@@H](C)C(=O)NCC(=O)N[C@@H](Cc2c[nH]cn2)C(=O)N[C@@H](C(C)C)C(=O)N2CCC[C@H]2C(=O)N1)C(C)C)C(=O)N[C@@H](C)C(=O)N[C@@H](CO)C(=O)N[C@@H](Cc1ccccc1)C(=O)N[C@@H](Cc1ccc(O)cc1)C(=O)NCC(=O)O [lassotide 23] (GGAGHVPEYFVRGDLASFYG-OH; lactam N-8; C-terminus assumed)
- IC50 [1]: 0.027 µM
- IC50 [2]: 0.051 µM

Compound: CC[C@H](C)[C@H](NC(=O)[C@@H]1CCCN1C(=O)[C@H](CCSC)NC(=O)[C@H](CC(=O)O)NC(=O)CNC(=O)[C@H](CCCNC(=N)N)NC(=O)[C@@H](NC(=O)[C@H](Cc1ccccc1)NC(=O)[C@H](Cc1ccc(O)cc1)NC(=O)[C@@H]1CCC(=O)NCC(=O)NCC(=O)N[C@@H](C)C(=O)NCC(=O)N[C@@H](Cc2c[nH]cn2)C(=O)N[C@@H](C(C)C)C(=O)N2CCC[C@H]2C(=O)N1)C(C)C)C(=O)N[C@@H](CO)C(=O)N[C@@H](Cc1ccccc1)C(=O)N[C@@H](Cc1ccc(O)cc1)C(=O)NCC(=O)O [lassotide 5] (GGAGHVPEYFVRGDMPISFYG-OH; lactam N-8; C-terminus assumed)
- IC50 [1]: 0.28 µM
- IC50 [2]: 0.259 µM

Compound: CC(C)C[C@H](NC(=O)[C@H](CC(=O)O)NC(=O)CNC(=O)[C@H](CCCNC(=N)N)NC(=O)[C@@H](NC(=O)[C@H](Cc1ccccc1)NC(=O)[C@H](Cc1ccc(O)cc1)NC(=O)[C@@H]1CCC(=O)NCC(=O)NCC(=O)N[C@@H](C)C(=O)NCC(=O)N[C@@H](Cc2c[nH]cn2)C(=O)N[C@@H](C(C)C)C(=O)N2CCC[C@H]2C(=O)N1)C(C)C)C(=O)N[C@@H](Cc1c[nH]c2ccccc12)C(=O)N[C@@H](CO)C(=O)N[C@@H](Cc1ccccc1)C(=O)N[C@@H](Cc1ccc(O)cc1)C(=O)NCC(=O)O [lassotide 26] (GGAGHVPEYFVRGDLWSFYG-OH; lactam N-8; C-terminus assumed)
- IC50 [1]: 0.024 µM
- IC50 [2]: 0.085 µM

Compound: CC[C@H](C)[C@H](NC(=O)[C@H](CC(C)C)NC(=O)[C@H](CC(=O)O)NC(=O)CNC(=O)[C@H](CCCNC(=N)N)NC(=O)[C@@H](NC(=O)[C@H](Cc1ccccc1)NC(=O)[C@H](Cc1ccc(O)cc1)NC(=O)[C@@H]1CCC(=O)NCC(=O)NCC(=O)N[C@@H](Cc2ccccc2)C(=O)NCC(=O)N[C@@H](Cc2c[nH]cn2)C(=O)N[C@@H](C(C)C)C(=O)N2CCC[C@H]2C(=O)N1)C(C)C)C(=O)N[C@@H](CO)C(=O)N[C@@H](Cc1ccccc1)C(=O)N[C@@H](Cc1ccc(O)cc1)C(=O)NCC(=O)O [lassotide 33] (GGFGHVPEYFVRGDLISFYG-OH; lactam N-8; C-terminus assumed)
- IC50 [1]: 0.347 µM
- IC50 [2]: 0.125 µM

Compound: CC[C@H](C)[C@H](NC(=O)[C@H](CC(C)C)NC(=O)[C@H](CC(=O)O)NC(=O)CNC(=O)[C@H](CCCNC(=N)N)NC(=O)[C@@H](NC(=O)[C@H](Cc1ccccc1)NC(=O)[C@H](Cc1ccc(O)cc1)NC(=O)[C@@H]1CCC(=O)NCC(=O)NCC(=O)N[C@@H](Cc2c[nH]cn2)C(=O)NCC(=O)N[C@@H](Cc2c[nH]cn2)C(=O)N[C@@H](C(C)C)C(=O)N2CCC[C@H]2C(=O)N1)C(C)C)C(=O)N[C@@H](CO)C(=O)N[C@@H](Cc1ccccc1)C(=O)N[C@@H](Cc1ccc(O)cc1)C(=O)NCC(=O)O [lassotide 31] (GGHGHVPEYFVRGDLISFYG-OH; lactam N-8; C-terminus assumed)
- IC50 [3, 5]: 0.021 µM
- IC50 [4]: 0.027 µM

Compound: CC[C@H](C)[C@H](NC(=O)[C@@H]1CCCN1C(=O)[C@H](C)NC(=O)[C@H](CC(=O)O)NC(=O)CNC(=O)[C@H](CCCNC(=N)N)NC(=O)[C@@H](NC(=O)[C@H](Cc1ccccc1)NC(=O)[C@H](Cc1ccc(O)cc1)NC(=O)[C@@H]1CCC(=O)NCC(=O)NCC(=O)N[C@@H](C)C(=O)NCC(=O)N[C@@H](Cc2c[nH]cn2)C(=O)N[C@@H](C(C)C)C(=O)N2CCC[C@H]2C(=O)N1)C(C)C)C(=O)N[C@@H](CO)C(=O)N[C@@H](Cc1ccccc1)C(=O)N[C@@H](Cc1ccc(O)cc1)C(=O)NCC(=O)O [lassotide 4] (GGAGHVPEYFVRGDAPISFYG-OH; lactam N-8; C-terminus assumed)
- IC50 [1]: 0.436 µM
- IC50 [2]: 0.109 µM

Compound: CC[C@H](C)[C@H](NC(=O)[C@H](CC(C)C)NC(=O)[C@H](CC(=O)O)NC(=O)CNC(=O)[C@H](CCCNC(=N)N)NC(=O)[C@H](C)NC(=O)[C@H](Cc1ccccc1)NC(=O)[C@H](Cc1ccc(O)cc1)NC(=O)[C@@H]1CCC(=O)NCC(=O)NCC(=O)N[C@@H](C)C(=O)NCC(=O)N[C@@H](Cc2c[nH]cn2)C(=O)N[C@@H](C(C)C)C(=O)N2CCC[C@H]2C(=O)N1)C(=O)N[C@@H](CO)C(=O)N[C@@H](Cc1ccccc1)C(=O)N[C@@H](Cc1ccc(O)cc1)C(=O)NCC(=O)O [lassotide 19] (GGAGHVPEYFARGDLISFYG-OH; lactam N-8; C-terminus assumed)
- IC50 [3, 5]: 0.066 µM
- IC50 [4]: 0.024 µM

Compound: CC[C@H](C)[C@H](NC(=O)[C@@H]1CCCN1C(=O)[C@H](Cc1c[nH]cn1)NC(=O)[C@H](CC(=O)O)NC(=O)CNC(=O)[C@H](CCCNC(=N)N)NC(=O)[C@@H](NC(=O)[C@H](Cc1ccccc1)NC(=O)[C@H](Cc1ccc(O)cc1)NC(=O)[C@@H]1CCC(=O)NCC(=O)NCC(=O)N[C@@H](C)C(=O)NCC(=O)N[C@@H](Cc2c[nH]cn2)C(=O)N[C@@H](C(C)C)C(=O)N2CCC[C@H]2C(=O)N1)C(C)C)C(=O)N[C@@H](CO)C(=O)N[C@@H](Cc1ccccc1)C(=O)N[C@@H](Cc1ccc(O)cc1)C(=O)NCC(=O)O [lassotide 6] (GGAGHVPEYFVRGDHPISFYG-OH; lactam N-8; C-terminus assumed)
- IC50 [1]: 0.457 µM
- IC50 [2]: 0.167 µM

Compound: CC(C)C[C@H](NC(=O)[C@H](CC(=O)O)NC(=O)CNC(=O)[C@H](CCCNC(=N)N)NC(=O)[C@@H](NC(=O)[C@H](Cc1ccccc1)NC(=O)[C@H](Cc1ccc(O)cc1)NC(=O)[C@@H]1CCC(=O)NCC(=O)NCC(=O)N[C@@H](CCCNC(=N)N)C(=O)NCC(=O)N[C@@H](CCC(N)=O)C(=O)N[C@@H](C(C)C)C(=O)N2CCC[C@H]2C(=O)N1)C(C)C)C(=O)N[C@@H](CCC(N)=O)C(=O)N[C@@H](CO)C(=O)N[C@@H](Cc1ccccc1)C(=O)N[C@@H](Cc1ccc(O)cc1)C(=O)NCC(=O)O [lassotide 40] (GGRGQVPEYFVRGDLQSFYG-OH; lactam N-8; C-terminus assumed)
- IC50 [3, 5]: 0.002 µM
- IC50 [4]: 0.0026 µM

Compound: CC[C@H](C)[C@H](NC(=O)[C@H](CC(C)C)NC(=O)[C@H](CC(=O)O)NC(=O)CNC(=O)[C@H](CCCNC(=N)N)NC(=O)[C@@H](NC(=O)[C@H](Cc1ccccc1)NC(=O)[C@H](Cc1ccc(O)cc1)NC(=O)[C@@H]1CCC(=O)NCC(=O)NCC(=O)N[C@@H](CCCCN)C(=O)NCC(=O)N[C@@H](Cc2c[nH]cn2)C(=O)N[C@@H](C(C)C)C(=O)N2CCC[C@H]2C(=O)N1)C(C)C)C(=O)N[C@@H](CO)C(=O)N[C@@H](Cc1ccccc1)C(=O)N[C@@H](Cc1ccc(O)cc1)C(=O)NCC(=O)O [lassotide 28] (GGKGHVPEYFVRGDLISFYG-OH; lactam N-8; C-terminus assumed)
- IC50 [3, 5]: 0.044 µM
- IC50 [4]: 0.048 µM

Compound: CC(C)C[C@H](NC(=O)[C@H](CC(=O)O)NC(=O)CNC(=O)[C@H](CCCNC(=N)N)NC(=O)[C@@H](NC(=O)[C@H](Cc1ccccc1)NC(=O)[C@H](Cc1ccc(O)cc1)NC(=O)[C@@H]1CCC(=O)NCC(=O)NCC(=O)N[C@@H](CCCNC(=N)N)C(=O)NCC(=O)N[C@@H](CO)C(=O)N[C@@H](C(C)C)C(=O)N2CCC[C@H]2C(=O)N1)C(C)C)C(=O)N[C@@H](CCC(N)=O)C(=O)N[C@@H](CO)C(=O)N[C@@H](Cc1ccccc1)C(=O)N[C@@H](Cc1ccc(O)cc1)C(=O)NCC(=O)O [lassotide 39] (GGRGSVPEYFVRGDLQSFYG-OH; lactam N-8; C-terminus assumed)
- IC50 [3, 5]: 0.0031 µM
- IC50 [4]: 0.0051 µM

Compound: CC[C@H](C)[C@H](NC(=O)[C@H](CC(C)C)NC(=O)[C@H](CC(=O)O)NC(=O)CNC(=O)[C@H](CCCNC(=N)N)NC(=O)[C@@H](NC(=O)[C@H](Cc1ccccc1)NC(=O)[C@H](Cc1ccc(O)cc1)NC(=O)[C@@H]1CCC(=O)NCC(=O)NCC(=O)N[C@@H](CCC(=O)O)C(=O)NCC(=O)N[C@@H](Cc2c[nH]cn2)C(=O)N[C@@H](C(C)C)C(=O)N2CCC[C@H]2C(=O)N1)C(C)C)C(=O)N[C@@H](CO)C(=O)N[C@@H](Cc1ccccc1)C(=O)N[C@@H](Cc1ccc(O)cc1)C(=O)NCC(=O)O [lassotide 29] (GGEGHVPEYFVRGDLISFYG-OH; lactam N-8; C-terminus assumed)
- IC50 [3, 5]: 0.104 µM
- IC50 [4]: 0.047 µM

Compound: CC[C@H](C)[C@@H]1NC(=O)[C@H](CO)NC(=O)CC[C@@H](C(=O)N[C@@H](CCCNC(=N)N)C(=O)NCC(=O)N[C@@H](CC(=O)O)C(=O)N[C@@H](CC(C)C)C(=O)N[C@@H](CCC(N)=O)C(=O)N[C@H](C(=O)N[C@@H](Cc2ccc(O)cc2)C(=O)N[C@@H](Cc2c[nH]c3ccccc23)C(=O)N2CCC[C@H]2C(=O)O)[C@@H](C)O)NC(=O)[C@H](CCCNC(=N)N)NC(=O)[C@H](CC(C)C)NC(=O)CNC(=O)[C@H](CO)NC(=O)[C@H](CC(=O)O)NC(=O)CNC1=O [lassotide 18] (SIGDSGLRERGDLQTYWP-OH; lactam N-9; C-terminus assumed)
- IC50 [3, 5]: 3.2 µM
- IC50 [4]: 2.47 µM

- IC50 [3]: 0.0007 µM
- IC50 [4]: 0.001 µM
Compound: CC(C)C[C@H](NC(=O)[C@H](CC(=O)O)NC(=O)CNC(=O)[C@H](CCCNC(=N)N)NC(=O)[C@H](CCC(N)=O)NC(=O)[C@H](Cc1ccccc1)NC(=O)[C@H](Cc1ccc(O)cc1)NC(=O)[C@@H]1CCC(=O)NCC(=O)NCC(=O)N[C@@H]([C@@H](C)O)C(=O)NCC(=O)N[C@@H](Cc2c[nH]cn2)C(=O)N[C@@H](C(C)C)C(=O)N2CCC[C@H]2C(=O)N1)C(=O)N[C@@H](CCC(N)=O)C(=O)N[C@@H](CO)C(=O)N[C@@H](Cc1ccccc1)C(=O)N[C@@H](Cc1ccc(O)cc1)C(=O)NCC(=O)O [lassotide 45] (GGTGHVPEYFQRGDLQSFYG-OH; lactam N-8; C-terminus assumed)

From doi:10.1101/2025.01.28.635346v1 (bioRxiv, 2025)
